Experimental data reported in patent US20240018105A1, “TROPOLONE DERIVATIVES AND TAUTOMERS THEREOF FOR IRON REGULATION IN ANIMALS” (Kinesid Therapeutics, Inc., priority 2019, published 2024).

Key:
[1] = test system: DMT1-deficient Caco-2 cells; assay: shDMT1-Caco2 55Fe transport assay; type: cell-based; details: Caco-2
Text: Assay 2: shDMT1-Caco2 ^55Fe Transport Assay to Assess Ligand Ability in Transporting Fe (III)
Cells: DMT1-deficient Caco-2 cells (alias: “shDMT1,” or “4A” cells) were from Grillo et al. Science, 2017, and were cryopreserved in liquid nitrogen prior to use.
Reagents and supplies: ^55FeCl3 was obtained from PerkinElmer (Boston, MA). Iron(III) chloride (FeCl3) hexahydrate was obtained from Sigma. Dulbecco's Modified Eagle Medium (DMEM), fetal bovine serum (FBS), L-glutamine, MEM nonessential amino acids, penicillin-streptomycin, G418, formic acid, methanol, high-purity water, ammonium formate, dimethyl sulfoxide (DMSO) were purchased from Fisher Scientific. Propranolol, atenolol and carbutamide were obtained from Sigma-Aldrich Chemical Company (St Louis, MO). Scintillation cocktail was obtained from Research Product International Co. (Mount Prospect, IL). Stericup filter system (PES membrane, 0.22 um pore size) was purchased from Fisher Scientific. Coming item #3378 24-well transwell insert plates. Test articles: known compounds hinokitiol and deferiprone were purchased from Sigma. They are tested side by side with the small molecule ligands disclosed in this application. DMSO stocks (10 mM, which is 1,000× of the 10 μM dose level) of hinokitiol or test articles were prepared. A stock solution of 25 mM deferiprone in DMSO was prepared. The DMSO stock solutions were stored at −20° C. or below when not in use.
The growth medium was prepared according to the following table
Apical media (serum free DMEM, 10 mM MES, pH 6.5) was prepared. Apical master mix media was prepared fresh with the addition of 200 nM ^55Fe before each experiment. For the negative control propranolol and atenolol wells, 200 nM of non-radioactive iron was used.
The basolateral media was serum-free DMEM, 10 mM HEPES, 2% bovine serum albumin (BSA), pH 7.4.
For each experiment, cells were seeded into the 24-well transwell plates (0.5 mL of 50,000 cells/mL) with growth media. The basolateral companion plate was loaded with 1 mL of growth media. After 12-24 hr, both the apical and basolateral chamber were replaced with growth media. The apical media was changed 3× per week for 21-28 days, including a media change exactly 48 hr before the assay date.
On the assay day, the TEER values were measured and the average TEER values was obtained. Individual wells with TEER vaule >35% lower than the average of all wells were excluded. For the qualified wells, the apical layer (twice) and basolaterial (once) chambers were washed with PBS. The basolateral companion plate was then filled with 1 mL of basolateral media. Via addition down the side-wall of the apical well, 300 μL per well of the apical assay master mix, with the indicated dose level of test article, was added. Each dose was tested in triplicate. The plates were incubated (5% CO2 and 90% humidity at 37° C.) for the indicated timepoints. At each indicated timepoint, the basolateral supernatant was gently mixed via pipetting, and 200 μL of the basolateral supernatant was transferred to scintillation vials. To each scintillation counting vial, 5 mL of scintillation cocktail fluid was added. For each scintillation vial, the radioactivity (CPM) was determined with liquid scintillation counter LS6500. The counting time per vial was 5 min.
All raw CPM values are divided by the average value of blank DMSO solution to give a fold of change above the DMSO value. The mean and standard deviation of each compound at each concentration level and at each time point measured was calculated to give the fold change (fc) value.
For rank order compounds, the fc value of a ligand at 4 h time point is further divided by the fold change (fc) value of hinokitiol (a positive control compound) at an equimolar concentration to arrive at the FC (normalized fold of change) value. Data reported in Tables 1 and 2 is 4 hr time point FC=fc-ligand @ 3 uM/fc-hino @ 3 uM, and FC hino=1.

Mouse 6-hour PK study = details: in vivo
Text: Compounds of the present disclosure were further evaluated in standard in vitro and in vivo Absorption, Distribution, Metabolism, Excretion (ADME) and Drug Metabolism and Pharmacokinetics (DMPK) assays to assess drug profiles important for further drug development.
Such assessments included human and mouse liver microsomal stability assays as well as 6-hour mouse PK studies.

[2] = Ligand facilitated Fe(III) efflux from liposomes; details: 10 uM ligand concentration; for Liposome Fe transport kefflux at 10 10 μM: Table 1
Description: Assay 1: Ligand Facilitated Fe(III) Efflux from Liposomes Preparation of POPC (1-palmitoyl-2-oleoyl-sn-glycero-3-phosphocholine): Cholesterol Liposomes:
A 1M buffer solution of MES and Tris was prepared by dissolving 121.14 grams of Tris base and 213.25 grams of MES hydrate in 500 mL of MilliQ water and adjusted to pH7.0 using an […] HCl solution before bringing the total volume of the solution to 1 L. A 500 mM solution of FeCl3 was prepared by dissolving 0.811 grams of anhydrous FeCl3 in 10 mL of a 0.1M H2SO4 aqueous solution. Inside buffer is prepared in a 50 mL falcon tube, which was added with 25 mL of MilliQ water, 1.61 g of sodium citrate, 1.5 mL of the above FeCl3 solution, and 2.5 mL of the 1M MES/Tris HCl buffer (pH=7.0), and finally additional MilliQ H2O to bring to a 50 mL final volume.
Lipid solution is prepared by dissolving 206.9 mg of POPC (1-palmitoyl-2-oleoyl-sn-glycero-3-phosphocholine) and 8.6 mg of cholesterol in 10 mL of ethanol.
The lipids solution and the inside buffer solution are independently loaded into 10 mL luer lock syringes for loading into a virgin cartridge on a Precision Nanosystems NanoAssembler to prepare unilamaller liposomes with the following parameters: 7.5 mL total volume, 1.5:1 mixing ratio of inside buffer:lipids solution, 8 mL/min flow rate, ambient temperature, 0.35 mL start waste, and 0.05 mL of end waste. 7.5 mL of liposomes is harvested for purification on a 6-inch long, 1-inch diameter Sephadex G-50 column wetted in 600 mM sodium ascorbate and 50 mM MES/Tris HCl pH 7.0 buffer. This buffer also serves as the column running buffer. The crude liposome solution is carefully loaded with minimal volume of running buffer above the top of the Sphadex, allowed to enter the matrix, and the column is run with the continued addition of running buffer. The eluting liposomes, observed as a milky and turbid solution, are collected until free iron begins to elute (observed as a deep purple color) and the fractions are pooled for phosphorus quantitation.
Phosphorus content of eluted liposomes was determined by the process outlined below. 10 uL of liposome elution and a running buffer blank are added to a 5 mL glass vial containing 450 uL of a 8.9 M aqueous H2SO4 solution, the mixture is heated to 225° C. for 25 minutes in an aluminum heat block to hydrolyze POPC and cooled for 5 minutes. 200 ul of a 30% hydrogen peroxide aqueous solution is added to each vial and heated to 225° C. for 25 minutes. After cooling, the phosphorus content was determined using an Abcam Phosphate Assay kit, with buffer subtracted phosphorus levels determined against a standard curve of phosphate included in the kit. Liposomes were diluted to 1 mM phosphate in Running Buffer for use in assays after accounting for dilutions made during phospholipid digestion.
Determination of the rate at which a small molecule ligand liberates (transport) Ferric iron from liposomes is performed in clear bottom black 384-well plates on a Spectramax i3x set to read the absorbance at 562 nm in the kinetic mode every 60 seconds for 120 minutes. 1 uL of serially diluted DMSO stock solution of a small molecule ligand is added to wells in triplicate to give the final concentrations of 40, 20, 10, 5, 2.5, and 1.25 uM of the ligand at 80 μL final volume, followed by addition of 1 μL of 100 mM Ferrozine in water to give a final concentration of 1 mM ferrozine. 78 uL of liposomes diluted to 1 mM phosphorus in running buffer is added to wells as quickly as possible (using a digital repeater mulchannel pipette) with the kinetic read initiated as rapidly as possible after addition of liposomes to all wells. Typically, eight compounds at six concentrations are tested in triplicate simultaneously.
Upon completion of kinetic read, the data for individual reads is fitted to a single phase association regression with the equation Y=(Y0−YMax)^(−kX)+YMax, with Y being the 562 absorbance value and X being time in minutes. […]

Compound	Caco2 shDMT1 transport FC @ 3 μM, 4h [1]	Liposome Fe transport kefflux at 10 10 μM [2]	other results
O=c1ccccc(-c2cscn2)c1O [Ex.76, 2-hydroxy-3-(thiazol-4-yl)cyclohepta-2,4,6-trien-1-one]	0.5-1		AUC(0-t) (Mouse 6-hour PK study): 500 to 1500 ng·h/mL; Cmax (Mouse 6-hour PK study): 1500 to 5000 ng/mL; half-life (Mouse 6-hour PK study): < 1.25 h; mouse 6-hour PK properties compared to hinokitiol (Mouse 6-hour PK study): one or more improved mouse 6-hour PK properties compared to hinokitiol
Cc1ncc(F)cc1-c1cccc(=O)c(O)c1 [Ex.58, 4-(5-fluoro-2-methylpyridin-3-yl)-2-hydroxycyclohepta-2,4,6-trien-1-one]	0.01-0.5	0.1-5	
O=c1ccccc(-c2cncs2)c1O [Ex.75, 2-hydroxy-3-(thiazol-5-yl)cyclohepta-2,4,6-trien-1-one]	0.5-1		Liposome Fe transport Kefflux at 10 μM ([2]; Table 2): 0.1-5
COc1cc(-c2cccc(=O)c(O)c2)cnc1OC [Ex.12, 4-(5,6-dimethoxypyridin-3-yl)-2-hydroxycyclohepta-2,4,6-trien-1-one]	0.5-1	7.5-10	
COc1cc(-c2cccc(=O)c(O)c2)c(F)cn1 [Ex.6, 4-(5-fluoro-2-methoxypyridin-4-yl)-2-hydroxycyclohepta-2,4,6-trien-1-one]	0.01-0.5	7.5-10	
COc1cncc(-c2cccc(=O)c(O)c2)c1 [Ex.10, 2-hydroxy-4-(5-methoxypyridin-3-yl)cyclohepta-2,4,6-trien-1-one]	0.01-0.5	0.1-5	
COc1nccc(-c2ccc(O)c(=O)cc2)n1.O=C(O)C(F)(F)F [Ex.38, 2-hydroxy-5-(2-methoxypyrimidin-4-yl)cyclohepta-2,4,6-trien-1-one]	0.01-0.5	0.1-5	
O=c1ccc(-c2cncc(F)c2)ccc1O [Ex.15, 5-(5-fluoropyridin-3-yl)-2-hydroxycyclohepta-2,4,6-trien-1-one]	0.01-0.5	5-7.5	
COc1cc(-c2cccc(=O)c(O)c2)ccn1 [Ex.8, 2-hydroxy-4-(2-methoxypyridin-4-yl)cyclohepta-2,4,6-trien-1-one]	0.01-0.5	7.5-10	
COc1ncccc1-c1cccc(=O)c(O)c1 [Ex.54, 2-hydroxy-4-(2-methoxypyridin-3-yl)cyclohepta-2,4,6-trien-1-one]	0.01-0.5	10-25	
Cc1cnccc1-c1cccc(=O)c(O)c1 [Ex.9, 2-hydroxy-4-(3-methylpyridin-4-yl)cyclohepta-2,4,6-trien-1-one]	0.01-0.5	0.1-5	
Cc1ncc(-c2ccc(O)c(=O)cc2)cc1F [Ex.59, 5-(5-fluoro-6-methylpyridin-3-yl)-2-hydroxycyclohepta-2,4,6-trien-1-one]	0.01-0.5	5-7.5	
Cc1ncc(-c2ccccc(=O)c2O)c(C)n1 [Ex.36, 3-(2,4-dimethylpyrimidin-5-yl)-2-hydroxycyclohepta-2,4,6-trien-1-one]	0.01-0.5	5-7.5	
O=c1cccc(-c2cncc(Cl)c2)cc1O [Ex.17, 4-(5-chloropyridin-3-yl)-2-hydroxycyclohepta-2,4,6-trien-1-one]	0.01-0.5	5-7.5	
Cc1ccc(-c2cccc(=O)c(O)c2)cn1 [Ex.18, 2-hydroxy-4-(6-methylpyridin-3-yl)cyclohepta-2,4,6-trien-1-one]	0.01-0.5	0.1-5	
O=c1cccc(-c2cnccc2F)cc1O [Ex.52, 4-(4-fluoropyridin-3-yl)-2-hydroxycyclohepta-2,4,6-trien-1-one]	0.01-0.5	0.1-5	
O=c1ccc(-c2ccncn2)ccc1O [Ex.49, 2-hydroxy-5-(pyrimidin-4-yl)cyclohepta-2,4,6-trien-1-one]	0.01-0.5	0.1-5	
Cc1ncc(-c2ccc(O)c(=O)cc2)cn1 [Ex.33, 2-hydroxy-5-(2-methylpyrimidin-5-yl)cyclohepta-2,4,6-trien-1-one]	0.01-0.5	0.1-5	
COc1nccc(-c2cccc(=O)c(O)c2)n1.O=C(O)C(F)(F)F [Ex.39, 2-hydroxy-4-(2-methoxypyrimidin-4-yl)cyclohepta-2,4,6-trien-1-one]	0.01-0.5	0.1-5	
